Reference: US20240092779A1, “USP1 INHIBITORS AND USES THEREOF” (Zentaur Therapeutics USA Inc., priority 2022, published 2024)

What was measured:
[1] = biological target: T1, recombinant USP1/UAF1 enzyme complex (Homo sapiens, UniProt O94782); test: Enzyme assay: deubiquitinase fluorometric assay with ubiquitin-Rhodamine substrate; assay type: biochemical; settings: USP1/UAF1, Ub-Rho110 substrate, 2 hours preincubation, 1 hour reaction
T1 construct: purchased Biortus
Method: Enzymatic inhibitory potency of the compounds was assessed in a deubiquitinase fluorometric assay using ubiquitin-Rhodamine (Ub-Rho110, R&D Systems) as substrate and the recombinant USP1/UAF1 enzyme complex (Biortus). Assays were performed in a final volume of 12 μL using black 384-well plates (Corning #4514) containing 50 mM HEPES (pH 7.5, BioRoYee), 0.5 mM EDTA, 1 mM dithiothreitol, 0.1 mg/mL bovine serum albumin, 50 nM Ub-Rhol10, 0.004 nM USP1/UAF1, and series diluted compounds from 10 μM to 0.5 nM (10 dilution steps). Assay-ready plates containing 40 nL of Echo-dispensed compound in DMSO were reconstituted with 2 μL of ddH2O, then 5 μL of USP1/UAF1 enzyme mixture was added and preincubated at room temperature for 2 hours. Enzymatic reaction was initiated by the addition of […] substrate mixture and assay allowed to proceed for 1 hour at room temperature before quenching with 3 μL of 150 mM citric acid. Fluorescence signal was detected via TECAN SPARK with excitation at 485 nm and emission at 535 nm. Data analysis was done using GraphPad Prism8 and IC50 values were obtained by 4-parameter logistic curve fitting.
Certain compounds were tested in the assays.

[2] = test system: HCC1806 Ub-PCNA (USP1); test: USP1 Western Blot Protocol (HCC1806 Ub-PCNA); assay type: cell-based; settings: HCC1806 cells, 4 hours
Outline: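 HCC1806 cells seeded overnight, then treated 4 h at 37 °C with a 5-point, 4-fold dilution series (0.1% DMSO). Lysates immunoblotted for Ub-PCNA with fluorescent detection; inhibition expressed as % vehicle from Ub-PCNA upregulation, IC50 by four-parameter logistic fit.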

[3] = test system: MDA-MB-436 cells; test: CTG Protocol (MDA-MB-436 GI50), antiproliferative activity; assay type: cell-based, human; settings: MDA-MB-436 cells (BRCA1 mutation), 7-day incubation, CellTiter-Glo
Outline: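 BRCA1-mutant MDA-MB-436 cells were seeded at 1000 cells/well in DMEM, left overnight, then exposed to a 9-point, 3-fold compound series for 7 days at 37 °C, 5% CO2. Viability was read by CellTiter-Glo luminescence. % inhibition was plotted against concentration to derive GI50.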

[4] = Liver microsomal stability (HLM); assay type: in vitro ADME; settings: human, liver microsomes, human liver microsomes 0.5 mg/mL, 1 μM compound, NADPH

T1 sequence (O94782 whole entry): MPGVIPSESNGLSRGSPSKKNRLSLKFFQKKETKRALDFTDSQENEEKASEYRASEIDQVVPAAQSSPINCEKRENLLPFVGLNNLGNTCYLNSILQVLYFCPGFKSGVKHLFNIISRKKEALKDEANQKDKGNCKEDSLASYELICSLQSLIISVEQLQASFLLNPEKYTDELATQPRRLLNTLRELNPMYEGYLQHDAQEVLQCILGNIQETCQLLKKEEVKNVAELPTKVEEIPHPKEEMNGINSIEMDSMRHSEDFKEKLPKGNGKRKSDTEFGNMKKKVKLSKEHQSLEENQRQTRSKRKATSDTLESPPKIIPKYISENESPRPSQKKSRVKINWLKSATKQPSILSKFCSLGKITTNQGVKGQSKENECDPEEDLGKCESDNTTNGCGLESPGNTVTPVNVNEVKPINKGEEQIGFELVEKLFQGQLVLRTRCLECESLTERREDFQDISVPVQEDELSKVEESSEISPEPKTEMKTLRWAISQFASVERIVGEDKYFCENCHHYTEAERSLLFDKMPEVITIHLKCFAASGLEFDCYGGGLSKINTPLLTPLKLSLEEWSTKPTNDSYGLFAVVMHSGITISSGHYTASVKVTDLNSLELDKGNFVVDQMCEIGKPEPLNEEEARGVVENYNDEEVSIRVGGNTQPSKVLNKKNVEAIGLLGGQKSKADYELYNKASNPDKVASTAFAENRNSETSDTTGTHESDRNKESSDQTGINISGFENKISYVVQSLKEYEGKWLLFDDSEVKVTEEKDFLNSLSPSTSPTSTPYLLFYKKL
T1 sequence (Q8TAF3 whole entry partner): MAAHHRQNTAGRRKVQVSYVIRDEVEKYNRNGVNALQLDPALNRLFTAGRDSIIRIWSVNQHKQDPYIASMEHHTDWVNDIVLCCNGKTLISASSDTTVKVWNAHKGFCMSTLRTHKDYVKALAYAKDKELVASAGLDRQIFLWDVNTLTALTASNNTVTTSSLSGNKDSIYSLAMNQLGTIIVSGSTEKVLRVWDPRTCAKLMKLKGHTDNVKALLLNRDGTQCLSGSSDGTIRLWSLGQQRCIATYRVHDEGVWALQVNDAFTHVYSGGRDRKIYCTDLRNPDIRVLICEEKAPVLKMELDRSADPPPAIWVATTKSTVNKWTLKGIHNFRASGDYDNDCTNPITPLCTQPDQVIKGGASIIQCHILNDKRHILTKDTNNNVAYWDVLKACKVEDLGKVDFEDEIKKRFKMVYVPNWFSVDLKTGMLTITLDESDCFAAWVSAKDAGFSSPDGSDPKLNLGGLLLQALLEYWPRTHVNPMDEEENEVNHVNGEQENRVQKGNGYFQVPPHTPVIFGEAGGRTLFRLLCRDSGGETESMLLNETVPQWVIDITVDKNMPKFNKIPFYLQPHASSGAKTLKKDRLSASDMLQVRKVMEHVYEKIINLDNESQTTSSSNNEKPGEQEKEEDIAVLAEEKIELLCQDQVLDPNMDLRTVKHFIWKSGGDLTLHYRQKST

Row | IC50 [1] [nM] | IC50 ([2]; Homo sapiens) [nM] | GI50 ([3]; Homo sapiens, 168 h) [nM] | microsomal CLint at 1 μM [4] [µL/min/mg] | IC50 [2] [nM] | GI50 [3] [nM] | Compound
1 | 10 to 100 | 10 to 100 | < 10 |  |  |  | COc1cc(Cn2c(=O)ccc3cnc(-c4c(OC)ncnc4C4CC4)nc32)cc(F)c1-c1nc(C(F)(F)F)cn1C1CC1 [Compound 53, 8-({4-[1-cyclopropyl-4-(trifluoromethyl)imidazol-2-yl]-3-fluoro-5-methoxyphenyl}methyl)-2-(4-cyclopropyl-6-methoxypyrimidin-5-yl)pyrido[2,3-d]pyrimidin-7-one]
2 | 10 to 100 | 10 to 100 | 10 to 100 | ≥ 50 |  |  | COc1ncnc(C2CC2)c1-c1ncc2c(n1)N(Cc1ccc(-c3nc(C(F)(F)F)cn3C(C)C)cc1)C(=O)N(C)C2 [Compound I-25]
3 | 10 to 100 | 10 to 100 | 10 to 100 | ≥ 50 |  |  | COc1ncnc(C2CC2)c1-c1ncc2ccc(=O)n(Cc3ccc(-c4ncccc4OC(C)C)cc3)c2n1 [Compound I-33]
4 | 10 to 100 | 10 to 100 | 10 to 100 |  |  |  | COc1cccnc1-c1ccc(Cn2c(=O)ccc3cnc(-c4c(OC)ncnc4C4CC4)nc32)cc1 [Compound 66, 2-(4-cyclopropyl-6-methoxypyrimidin-5-yl)-8-{[4-(3-methoxypyridin-2-yl)phenyl]methyl}pyrido[2,3-d]pyrimidin-7-one]
5 | 10 to 100 |  |  |  | 10 to 100 | 10 to 100 | COc1ncnc(C2CC2)c1-c1ncc2cc(C(C)(C)O)c(=O)n(Cc3ccc(-c4nc(C(F)(F)F)cn4C)cc3)c2n1 [Compound 70]
6 | 10 to 100 | 10 to 100 | 10 to 100 |  |  |  | CCn1cc(C(F)(F)F)nc1-c1ccc(Cn2c(=O)c(C(=O)N3CCN(C)CC3)cc3cnc(-c4c(OC)ncnc4C4CC4)nc32)cc1 [Compound I-30, 2-(4-Cyclopropyl-6-Methoxypyrimidin-5-Yl)-8-({4-[1-Ethyl-4-(Trifluoromethyl)Imidazol-2-Yl]Phenyl}Methyl)-6-(4-Methylpiperazine-1-Carbonyl)Pyrido[2,3-d]Pyrimidin-7-One]
7 | 100 to 1000 | 100 to 1000 | 100 to 1000 |  |  |  | COc1ncnc(C2CC2)c1-c1ncc2ccc(=O)n(Cc3ccc(-c4cccc(C(F)(F)F)c4)cc3)c2n1 [Compound I-42]
8 | 100 to 1000 | > 1000 | > 1000 |  |  |  | COc1ncnc(C2CC2)c1-c1ncc2ccc(=O)n(Cc3ccc(-c4nccc(C(F)(F)F)n4)cc3)c2n1 [Compound I-34]
9 | 10 to 100 | 10 to 100 | 10 to 100 |  |  |  | COc1ncnc(C2CC2)c1-c1ncc2ccc(=O)n(Cc3ccc(-c4nc(C(F)(F)F)cn4C4CC4)cc3)c2c1F [Compound 82]
10 | 10 to 100 | 100 to 1000 | 10 to 100 |  |  |  | COc1ncnc(C2CC2)c1-c1ncc2c(=O)n(C)c(=O)n(Cc3ccc(-c4nc(C(F)(F)F)cn4C(C)C)cc3)c2n1 [Compound I-26, 7-(4-cyclopropyl-6-methoxypyrimidin-5-yl)-1-({4-[1-isopropyl-4-(trifluoromethyl)imidazol-2-yl]phenyl}methyl)-3-methylpyrimido[4,5-d][1,3]diazine-2,4-dione]
11 | 10 to 100 | 10 to 100 | 10 to 100 |  |  |  | CCc1ncnc(OC)c1-c1ncc2ccc(=O)n(Cc3ccc(-c4nc(C(F)(F)F)cn4C)cc3)c2n1 [Compound I-48, 2-(4-Ethyl-6-Methoxypyrimidin-5-Yl)-8-({4-[1-Methyl-4-(Trifluoromethyl)Imidazol-2-Yl]Phenyl}Methyl)Pyrido[2,3-d]Pyrimidin-7-One]
12 | 10 to 100 |  |  |  | 10 to 100 | 10 to 100 | COc1ncnc(C2CC2)c1-c1ncc2cc(C(C)=O)c(=O)n(Cc3ccc(-c4nc(C(F)(F)F)cn4C)cc3)c2n1 [Compound 69]
13 | 10 to 100 | 10 to 100 | 10 to 100 | ≥ 50 |  |  | COc1ncnc(C2CC2)c1-c1ncc2c(n1)N(Cc1ccc(-c3nc(C(F)(F)F)cn3C(C)C)cc1)C(=O)NC2 [Compound I-24]
14 | 10 to 100 |  |  |  | 10 to 100 | 10 to 100 | COc1ncnc(C2CC2)c1-c1ncc2cc(C(F)F)c(=O)n(Cc3ccc(-c4nc(C(F)(F)F)cn4C)cc3)c2n1 [Compound 77]
15 | 10 to 100 | 10 to 100 | 10 to 100 |  |  |  | CCn1cc(C(F)(F)F)nc1-c1ccc(Cn2c(=O)c(Br)cc3cnc(-c4c(OC)ncnc4C4CC4)nc32)cc1 [Compound I-38, 6-Bromo-2-(4-Cyclopropyl-6-Methoxypyrimidin-5-Yl)-8-({4-[1-Ethyl-4-(Trifluoromethyl)Imidazol-2-Yl]Phenyl}Methyl)Pyrido[2,3-d]Pyrimidin-7-One]
16 | < 10 |  |  |  | 100 to 1000 | 10 to 100 | COc1ncnc(C2CC2)c1-c1ncc2cc(C3=CCN(C)CC3)c(=O)n(Cc3ccc(-c4nc(C(F)(F)F)cn4C)cc3)c2n1 [Compound 68]
17 | 100 to 1000 | 10 to 100 | 10 to 100 |  |  |  | COc1ncnc(C2CC2)c1-c1ncc2ccc(=O)n(Cc3ccc(-c4nc(C)ccc4F)cc3)c2n1 [Compound I-35]
18 | 10 to 100 | < 10 | < 10 |  |  |  | CCn1cc(C(F)(F)F)nc1-c1ccc(Cn2c(=O)cnc3cnc(-c4c(OC)ncnc4C4CC4)nc32)cc1 [Compound I-28]
19 | 10 to 100 |  |  |  | 100 to 1000 | 10 to 100 | COc1ncnc(C2CC2)c1-c1ncc2cc(CN(C)C)c(=O)n(Cc3ccc(-c4nc(C(F)(F)F)cn4C)cc3)c2n1 [Compound 56]
20 | 10 to 100 | 10 to 100 | 10 to 100 |  |  |  | COc1ncnc(C2CC2)c1-c1ncc2ccc(=O)n(Cc3ccc(-c4nc(C(F)(F)F)cn4CC(F)F)cc3)c2n1 [Compound 61, 2-(4-cyclopropyl-6-methoxypyrimidin-5-yl)-8-({4-[1-(2,2-difluoroethyl)-4-(trifluoromethyl)imidazol-2-yl]phenyl}methyl)pyrido[2,3-d]pyrimidin-7-one]
